Data on 15 molecules can be found in US6737424B2 (Zeneca Ltd., priority 1995, dated 2004).

Data set [1] relates to NMDA-induced excitatory response of red nucleus cells. The data set is described as follows: Red nucleus test (Test B). The class given is in vivo, rat. Particulars: anesthetized rats. As to the method:
The purpose of this test is to determine the effects of intravenously administered glycine antagonists on the NMDA-induced excitatory response of red nucleus cells.
The procedure for the red nucleus test is as follows. Rats are anesthetized with chloral hydrate (400 mg/kg ip) and the femoral vein is catheterized for iv drug administration. Five-barrel micropipettes are stereotaxically positioned in the red nucleus. Typically, three to four of the five barrels are filled as follows: the recording barrel with 2M potassium citrate, the current balancing barrel with 4M NaCl, the drug barrel with 25 mM NMDA, and another drug barrel with 2.5 mM quisqualic acid (QA is only used in selectivity studies). NMDA is iontophoretically applied with an ejection current that is adjusted depending on the sensitivity of each individual red nucleus cell. The NMDA is cycled on and off (usually 30-60 sec. on and 60-120 sec. off) and the firing rate of the cell during each period is recorded. Once the baseline firing rate of the cell has been established, the test drug is administered iv. The effect of the drug on the NMDA-induced excitatory response of the red nucleus cell can be both qualitatively and quantitatively evaluated from the recordings and the raw data accumulated.

The target of data set [2] is T1, glycine receptor of the NMDA receptor complex (Rattus norvegicus, UniProt P35439).
T1 construct: Freshly dissected cortices and hippocampi are homogenized in 0.32 M sucrose; from tissue; host or cells: rat cortex and hippocampus synaptic membranes
In words: [3H]-glycine binding assay (Test A). The text has this: The actions of compounds according to the invention as antagonists at the glycine receptor of the NMDA receptor complex can be shown by one or more standard tests such as the [^3H]-glycine binding assay (Test A) and by in vivo tests such as the red nucleus test (Test B) and the Rat Middle Cerebral Artery test (Test C). These tests confirm that compounds of the invention function as NMDA receptor antagonists in vitro and in vivo. Certain compounds of the invention are potent NMDA receptor antagonists.
In the [^3H]-glycine binding assay, neuronal synaptic membranes are prepared from adult (about 250 g) male Sprague-Dawley rats. Freshly dissected cortices and hippocampi are homogenized in 0.32 M sucrose (110 mg/mL). Synaptosomes are isolated by centrifugation (1000×g, 10 min), the supernatant is pelleted (20,000×g, 20 min) and resuspended in double-distilled water. The suspension was centrifuged for 20 minutes at 8,000×g. The resulting supernatant and buffy coat are washed twice (48,000×g, 10 min) and resuspended in double-deionized water. The final pellet is quickly frozen (dry ice/ethanol bath) under double-deionized water and stored at −70° C.
On the day of the experiment, thawed synaptic membranes are homogenized with a Brinkmann Polytron (Brinkmann Instruments, Westbury, N.Y.) tissue homogenizer in 50 millimolar tris(hydroxymethyl)aminomethane citrate, pH 7.1. The membranes are incubated with 0.04% Sufact-AMPS X100 (Pierce, Rockford, Ill.) in buffer for 20 minutes at 37° C. and washed six times by centrifugation (48,000×g, 10 min) and resuspended in buffer. The final pellet is homogenized at 200 mg wet weight/mL of the buffer for the binding assay.
For [^3H]-glycine binding at the N-methyl-D-aspartate receptor, 20 nanomolar [^3H]-glycine (40-60 Ci/mmol, New England Nuclear, Boston, Mass.) is incubated with the membranes suspended in 50 millimolar tris(hydroxymethyl)aminomethane citrate, pH 7.1 for 30 minutes at 4° C. Glycine, 1 millimolar, is used to define the nonspecific binding. Bound [^3H]-glycine is isolated from free using a Brandel (Biomedical Research and Development Laboratories, Gaithersburg, Md.) cell harvester for vacuum filtration over glass fiber filters (Whatman GF/B from Brandel, Gaithersburg, Md.) presoaked in 0.025% polyethylenimine. The samples retained on the glass fiber filters are rinsed 3 times with a total of 2.5 mL ice cold buffer. Radioactivity is estimated by liquid scintillation counting. IC50 values are obtained from a least-squares regression of a logit-log transformation of the data.

Data set [3] relates to permanent middle cerebral artery (MCA) occlusion, focal ischemia. In words: Rat Middle Cerebral Artery test (Test C). The class given is in vivo. The note with it: I.V. dose of 20 mgs/kg/hr, SHR rats, 24 hours after MCA/common carotid artery occlusion. As to the method: Male SHR rats weighing 280-320 g are used for these studies. The method used for permanent middle cerebral artery (MCA) occlusion is as described by Brint et al (1988). […] Following occlusions, drugs are administered intravenously via jugular catheter. Twenty-four hours after MCA/common carotid artery occlusion, the animals are sacrificed and their brains quickly removed. Coronal sections of 1 mm thickness are cut using a vibratome and stained with 2,3,5-triphenyl-2H-tetrazolium chloride (TTC) dye. Following staining, necrotic tissue is readily distinguished from the intact brain and the area of infarcted cortex can be traced on an image analyzer. The infarct volume for each section is quantified with an image analyzer, and the total infarct volume is calculated with a program that summed all interval volume. See S. Brint et al. J. Cerebral Blood Flow 8:474-485 (1988). The statistical analysis of the difference between the volume of ischemic damage in the vehicle control and drug-treated animals is analyzed by Student's t-test. […] For example, the compound of example 4 at an I.V. dose of 20 mgs/kg/hr caused an infarct % volume change of −22%.

Structures are written as SMILES. Like-named read-outs stand apart in the source and are kept apart here.

As a reminder, the melting point is the temperature, or range, at which the solid turns liquid. With `CC(Cc1ccccc1)n1nc(O)c2[nH]c3cc(Cl)ccc3c(=O)c2c1=O` (stereo not drawn) (hydrate or solvate) [Example 5, 7-chloro-4-hydroxy-2-(1-methyl-2-phenylethyl)-1,2,5,10-tetrahydropyridazino[4,5-b]quinoline-1,10-dione], the melting point lay within 241 to 244 °C.

Turning to `COC(=O)[C@@H](C)n1nc(O)c2[nH]c3cc(Cl)ccc3c(=O)c2c1=O` (hydrate or solvate) [Example 7, 7-chloro-4-hydroxy-2-[(R)-1-(methyloxycarbonyl)-ethyl]-1,2,5,10-tetrahydropyridazino[4,5-b]quinoline-1,10-dione], the melting point lay within 262 to 264 °C.

As for `COC(=O)C1(Cn2nc(O)c3[nH]c4cc(Cl)ccc4c(=O)c3c2=O)C=CC=CC1` (stereo not drawn) (hydrate or solvate) [Example 8, 7-chloro-4-hydroxy-2-[1-(methyloxycarbonyl)-benzyl]-1,2,5,10-tetrahydropyridazino[4,5-b]quinoline-1,10-dione], the melting point fell in the range of 242 to 244 °C.

`O=c1c2ccc(Cl)cc2[nH]c2c(O)nn(CC3(C(F)(F)F)C=CC=CC3)c(=O)c12` (stereo not drawn) (hydrate or solvate) [Example 12, 7-chloro-4-hydroxy-2-(1-trifluoromethylbenzyl)-1,2,5,10-tetrahydropyridazino[4,5-b]quinoline-1,10-dione]: the melting point lay within 237 to 238 °C.

With `C/C(=C\C(N)C(=O)O)CP(=O)(O)O` (stereo not drawn) [CGP 37849], in data set [1] (reference agents, intravenous), the “ID50, red nucleus test” value came out at 1.7 mg/kg iv.

What is called IC50 is the concentration at which inhibition is half-maximal. `CC(C(=O)Nc1ccccc1)n1nc(O)c2[nH]c3cc(Cl)ccc3c(=O)c2c1=O` (stereo not drawn) [Example 1, 7-chloro-4-hydroxy-2-[1-(phenylcarbamoyl)ethyl]-1,2,5,10-tetrahydropyridazino[4,5-b]quinoline-1,10-dione] yielded a melting point greater than 250 °C. Further, the IC50 in data set [2] is 240 nM.

Take `O=c1c2ccc(Cl)cc2[nH]c2c(O)nn(C3CCCCC3)c(=O)c12` [Example 2, 7-chloro-4-hydroxy-2-cyclohexyl-1,2,5,10-tetrahydropyridazino[4,5-b]quinoline-1,10-dione]: the melting point was greater than 100 °C. Further, the IC50 in data set [2] (rat cortex/hippocampus synaptic membranes, 20 nanomolar [3H]-glycine, 30 minutes at 4° C., pH 7.1, read-out: IC50, [3H]-glycine binding) is 120 nM.

The molecule `CC(c1ccccc1)n1nc(O)c2[nH]c3cc(Cl)ccc3c(=O)c2c1=O` (stereo not drawn) [Example 3] registered an IC50 in data set [2] of 370 nM.

In the case of `CCCC(C)n1nc(O)c2[nH]c3cc(Cl)ccc3c(=O)c2c1=O` (stereo not drawn) [Example 4, 7-chloro-4-hydroxy-2-(1-methylbutyl)-1,2,5,10-tetrahydropyridazino[4,5-b]quinoline-1,10-dione], the melting point is 237 to 239 °C. The molecule also displayed an IC50 in data set [2] of 240 nM. Also, the ID50, red nucleus test in data set [1] (as the meglumine salt (N=3), iv) was 3.77 mg/kg. The “infarct % volume change” value in data set [3] was −22%.

As for `CC(Cc1ccccc1)n1nc(O)c2[nH]c3cc(Cl)ccc3c(=O)c2c1=O` (stereo not drawn) [Example 5, 7-chloro-4-hydroxy-2-(1-methyl-2-phenylethyl)-1,2,5,10-tetrahydropyridazino[4,5-b]quinoline-1,10-dione], the half-maximal inhibitory concentration (IC50) in data set [2] was 300 nM.

As to `CC(C)CC(C)n1nc(O)c2[nH]c3cc(Cl)ccc3c(=O)c2c1=O` (stereo not drawn) [Example 6, 7-chloro-4-hydroxy-2-(1,3-dimethylbutyl)-1,2,5,10-tetrahydropyridazino[4,5-b]quinoline-1,10-dione], the melting point is 238 to 240 °C. Moreover, the IC50 in data set [2] is 290 nM.

In turn, `CC(CC(=O)Nc1ccccc1)n1nc(O)c2[nH]c3cc(Cl)ccc3c(=O)c2c1=O` (stereo not drawn) [Example 10, 7-chloro-4-hydroxy-2-[1-methyl-2-(N-phenylcarbamoyl)ethyl]-1,2,5,10-tetrahydropyridazino[4,5-b]quinoline-1,10-dione] displayed a melting point greater than 250 °C.

The molecule `CC(CC(=O)N(C)c1ccccc1)n1nc(O)c2[nH]c3cc(Cl)ccc3c(=O)c2c1=O` (stereo not drawn) [Example 11, 7-chloro-4-hydroxy-2-[1-methyl-2-(N-phenyl-N-methylcarbamoyl)ethyl]-1,2,5,10-tetrahydropyridazino[4,5-b]quinoline-1,10-dione] had a melting point of 218 to 219 °C.

In turn, `C[C@H](C(=O)O)n1nc(O)c2[nH]c3cc(Cl)ccc3c(=O)c2c1=O` [Example 13, 7-chloro-4-hydroxy-2-[(R)-1-carboxyethyl]-1,2,5,10-tetrahydropyridazino[4,5-b]quinoline-1,10-dione] yielded a melting point greater than 275 °C.

Turning to `NC1CCN(O)C1=O` (stereo not drawn) [HA-966], the “ID50, red nucleus test” value in data set [1] (reference agents, intravenous) was determined as 7.9 mg/kg iv.
